Usually ILS stands for how much longer treated animals lived than controls. As usually defined, the logP is the decadic logarithm of the partition coefficient of the neutral form, usually between octanol and water.

This is an account of results in ChEMBL document CHEMBL1122548, “1-Aryl-3,3-dimethyltriazenes: potential central nervous system active analogues of 5-(3,3-dimethyl-1-triazeno)imidazole-4-carboxamide (DTIC)” (J Med Chem, 1984).

The structures appear in SMILES notation.

Data set [1] has as its system Mus musculus. Kind of data set: Maximum increase in life span was measured in B6d2F1 mice after implanting murine leukemia L1210 cells(ic, 10e4 cells) at an intracerebral optimal dose of 160 mg/ (kg day)(qd 1-9). Format: functional.
In data set [2] the test system is Mus musculus. Kind of data set: Maximum increase in life span was measured in B6d2F1 mice after implanting murine leukemia L1210 cells(ip, 10e5 cells) at an intraperitoneal optimal dose of 39 mg/ (kg day)(qd 1-9). Format: functional.
Data set [3] has as its system Mus musculus. Kind of data set: Percent increase in life span was measured in B6C3F1 mice after implanting murine Ependymoblastoma cells(ic) at an intraperitoneal optimal dose of 128 mg/ (kg injection).
A short description of data set [4]: Partition coefficient (logP). The data set is classed as physicochemical. As to conditions: octanol/water.
For data set [5], the system named is Mus musculus. Briefly: Maximum increase in life span was measured in B6d2F1 mice after implanting murine leukemia L1210 cells(ip, 10e5 cells) at an intraperitoneal optimal dose of 108 mg/ (kg day)(qd 1-9). Format: functional.
For data set [6], the system named is Mus musculus. Briefly: Percent increase in life span was measured in B6C3F1 mice after implanting murine Ependymoblastoma cells(ic) at an intraperitoneal optimal dose of 64 mg/ (kg injection).
For data set [7], the system named is Mus musculus. Briefly: Maximum increase in life span was measured in B6d2F1 mice after implanting murine leukemia L1210 cells(ic, 10e4 cells) at an intracerebral optimal dose of 40 mg/ (kg day)(qd 1-9). The data set is classed as functional.
The test system of data set [8] is Mus musculus. Briefly: Percent increase in life span was measured in B6C3F1 mice after implanting murine Ependymoblastoma cells(ic) at an intraperitoneal optimal dose of 32 mg/ (kg injection).
For data set [9], the system named is Mus musculus. Briefly: Maximum increase in life span was measured in B6d2F1 mice after implanting murine leukemia L1210 cells(ic, 10e4 cells) at an intracerebral optimal dose of 80 mg/ (kg day)(qd 1-9). The data set is classed as functional.
In data set [10] the test system is Mus musculus. Kind of data set: Maximum increase in life span was measured in B6d2F1 mice after implanting murine leukemia L1210 cells(ic, 10e4 cells) at an intracerebral optimal dose of 40 mg/(kg day)(qd 1-9). The data set is classed as functional.
Data set [11] has as its system Mus musculus. Briefly: Maximum increase in life span was measured in B6d2F1 mice after implanting murine leukemia L1210 cells(ip, 10e5 cells) at an intraperitoneal optimal dose of 65 mg/(kg day)(qd 1-9). Format: functional.
In data set [12] the test system is Mus musculus. Kind of data set: Maximum increase in life span was measured in B6d2F1 mice after implanting murine leukemia L1210 cells(ip, 10e5 cells) at an intraperitoneal optimal dose of 65 mg/ (kg day)(qd 1-9). The data set is classed as functional.
The subject of data set [13] is Mus musculus. Kind of data set: Percent increase in life span was measured in B6C3F1 mice after implanting murine Ependymoblastoma cells(ic) at an intraperitoneal optimal dose of 8 mg/ (kg injection).
The test system of data set [14] is Mus musculus. Kind of data set: Maximum increase in life span was measured in B6d2F1 mice after implanting murine leukemia L1210 cells(ic, 10e4 cells) at an intracerebral optimal dose of 20 mg/ (kg day)(qd 1-9). Format: functional.
Data set [15] has as its system Mus musculus. Briefly: Percent increase in life span was measured in B6d2F1 mice after implanting B16 melanoma cells(ic) at an intracerebral (ic) optimal dose of 40-80 mg/ (kg day). Format: functional.
Data set [16] concerns Mus musculus. Briefly: Maximum increase in life span was measured in B6d2F1 mice after implanting murine leukemia L1210 cells(ip, 10e5 cells) at an intraperitoneal optimal dose of 300 mg/ (kg day)(qd 1-9). Format: functional.
Data set [17] relates to Mus musculus. Kind of data set: Percent increase in life span was measured in B6d2F1 mice after implanting B16 melanoma cells(ic) at an intracerebral (ic) optimal dose of 10-40 mg/ (kg day). The data set is classed as functional.

Consider `COC(=O)c1cccc(/N=N/N(C)C)c1`, for which the ILS amounted to 10% in the data set with Mus musculus [1], 30% in the data set with Mus musculus [2] and 62% with Mus musculus [3]. For the same compound, in data set [4] (read-out: logP), the log partition coefficient (logP) stood at 2.77.
For the compound `CN(C)/N=N/c1c(Br)cccc1Br`, the ILS in the data set with Mus musculus [1] amounted to 14%; with Mus musculus [5] it was 44%. Also, the logP in data set [4] (read-out: logP) was found to be 4.31.
Turning to `COC(=O)c1ccc(/N=N/N(C)C)cc1`, the increase in life span (ILS) worked out at 7% in the data set on Mus musculus [1], 40% with Mus musculus [2] and 64% with Mus musculus [6]. The logP in [4] (read-out: logP) is 2.77.
As to `CN(C)/N=N/c1cccc(C(N)=O)c1`, the ILS in the data set with Mus musculus [2] was found to be 50%; in the data set on Mus musculus [7], 22%. The logP in data set [4] (read-out: logP) was 1.21.
Regarding `CN(C)/N=N/c1ccc(C(=O)O)cc1`, the ILS came to 41% with Mus musculus [2], 18% in the data set with Mus musculus [8] and 25% in the data set on Mus musculus [9]. The compound also yielded a logP in data set [4] of -1.77.
Take `COC(=O)c1ccccc1/N=N/N(C)C`: the ILS came out at 14% in the data set with Mus musculus [10] and 11% in the data set with Mus musculus [11]. The logP in data set [4] (read-out: logP) turned out to be 2.72.
As to `CN(C)/N=N/c1ccccc1Cl`, the ILS in the data set on Mus musculus [12] is recorded as 21%; with Mus musculus [3], 38%; in the data set with Mus musculus [9], 5%.
In the case of `CN(C)/N=N/c1ccccc1C(=O)O`, the values for the ILS in the data set with Mus musculus [12], in the data set on Mus musculus [13] and with Mus musculus [14] were 12%, 2% and 6%, respectively. Besides, in [4] (read-out: logP), the logP was -2.66.
With `CN(C)/N=N/c1ccc(C(N)=O)cc1`, the ILS in the data set with Mus musculus [1] worked out at 45%; in the data set with Mus musculus [2], 40%; in the data set on Mus musculus [8] it was 62%; with Mus musculus [15] it was 30%. Moreover, in [4], the logP is 1.2.
In the case of `CN(C)/N=N/c1c(Cl)cccc1Cl`, the ILS in the data set on Mus musculus [1] turned out to be 12%; in the data set on Mus musculus [5], 39%. Further, the logP in data set [4] (read-out: logP) is 4.01.
For the compound `CN(C)/N=N/c1cccc(Cl)c1`, the ILS with Mus musculus [5] was found to be 11%; in the data set on Mus musculus [7], 7%. Moreover, the lipophilicity (logP) in data set [4] (read-out: logP) came to 3.3.
In the case of `CC(=O)c1ccccc1/N=N/N(C)C`, the results for the increase in lifespan (ILS) in the data set with Mus musculus [5] and in the data set on Mus musculus [7] were 0% and 9%, respectively. Further, the logP in data set [4] (read-out: logP) turned out to be 2.19.
In the case of `CC(=O)c1cccc(/N=N/N(C)C)c1`, the ILS came to 55% in the data set with Mus musculus [12] and 6% with Mus musculus [7]. In data set [4] (read-out: logP), the log partition coefficient (logP) came to 2.19.
As for `CN(C)/N=N/c1ccccc1C(N)=O`, the ILS with Mus musculus [12] and in the data set with Mus musculus [7] was 10% each time.
In turn, `CN(C)/N=N/c1ccc(I)cc1` yielded an increase in lifespan (ILS) in the data set with Mus musculus [16] of 5%. For the same compound, the logP in data set [4] (read-out: logP) turned out to be 3.71.
In the data set on Mus musculus [16], `CN(C)/N=N/c1ccc(Br)cc1` returned an ILS of 0%. Besides, the logP in [4] (read-out: logP) was found to be 3.45.
Take `CC(=O)c1ccc(/N=N/N(C)C)cc1`: the ILS in the data set on Mus musculus [14] stood at 5%; in the data set with Mus musculus [5], 16%. Also, the logP in [4] (read-out: logP) was found to be 2.19.
For the compound `CN(C)/N=N/c1ccc(F)cc1`, the ILS with Mus musculus [16] came out at 16%. In data set [4] (read-out: logP), the logP was found to be 2.73.
Consider `CN(C)/N=N/c1ccc(Cl)cc1`, for which the increase in lifespan (ILS) turned out to be 26% in the data set with Mus musculus [5] and 2% in the data set on Mus musculus [9]. In addition, the lipophilicity (logP) in [4] (read-out: logP) came out at 3.3.
For `CN(C)/N=N/c1[nH]cnc1C(N)=O` [DACARBAZINE], the ILS in the data set with Mus musculus [1] was found to be 18%; with Mus musculus [17], 8%; with Mus musculus [6], 60%; in the data set with Mus musculus [5], 50%. The compound further returned a logP in data set [4] of -0.24.
